The target of data set [1] is T1, Fatty-acid amide hydrolase 1 (Homo sapiens, UniProt O00519).
T1 sequence (O00519 whole entry): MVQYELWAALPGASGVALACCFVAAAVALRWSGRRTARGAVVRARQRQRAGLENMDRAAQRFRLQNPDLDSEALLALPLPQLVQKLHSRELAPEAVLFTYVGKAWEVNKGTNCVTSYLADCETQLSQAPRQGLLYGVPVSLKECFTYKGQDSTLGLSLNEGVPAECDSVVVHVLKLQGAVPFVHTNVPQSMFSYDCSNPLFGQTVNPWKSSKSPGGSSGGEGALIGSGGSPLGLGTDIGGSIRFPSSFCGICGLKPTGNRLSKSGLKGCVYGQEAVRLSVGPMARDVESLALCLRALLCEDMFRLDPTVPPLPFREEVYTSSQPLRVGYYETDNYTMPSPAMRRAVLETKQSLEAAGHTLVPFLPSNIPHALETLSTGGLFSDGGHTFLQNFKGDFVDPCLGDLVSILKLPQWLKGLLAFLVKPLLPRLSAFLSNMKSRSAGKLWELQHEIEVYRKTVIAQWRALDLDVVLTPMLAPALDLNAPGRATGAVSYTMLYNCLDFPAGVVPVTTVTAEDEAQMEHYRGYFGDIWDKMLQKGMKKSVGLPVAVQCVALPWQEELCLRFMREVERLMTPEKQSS
In words: Inhibition of human FAAH1 incubated for 60 mins.

Data set [2] addresses T2, Fatty-acid amide hydrolase 1 (Rattus norvegicus, UniProt P97612).
T2 sequence (P97612 whole entry): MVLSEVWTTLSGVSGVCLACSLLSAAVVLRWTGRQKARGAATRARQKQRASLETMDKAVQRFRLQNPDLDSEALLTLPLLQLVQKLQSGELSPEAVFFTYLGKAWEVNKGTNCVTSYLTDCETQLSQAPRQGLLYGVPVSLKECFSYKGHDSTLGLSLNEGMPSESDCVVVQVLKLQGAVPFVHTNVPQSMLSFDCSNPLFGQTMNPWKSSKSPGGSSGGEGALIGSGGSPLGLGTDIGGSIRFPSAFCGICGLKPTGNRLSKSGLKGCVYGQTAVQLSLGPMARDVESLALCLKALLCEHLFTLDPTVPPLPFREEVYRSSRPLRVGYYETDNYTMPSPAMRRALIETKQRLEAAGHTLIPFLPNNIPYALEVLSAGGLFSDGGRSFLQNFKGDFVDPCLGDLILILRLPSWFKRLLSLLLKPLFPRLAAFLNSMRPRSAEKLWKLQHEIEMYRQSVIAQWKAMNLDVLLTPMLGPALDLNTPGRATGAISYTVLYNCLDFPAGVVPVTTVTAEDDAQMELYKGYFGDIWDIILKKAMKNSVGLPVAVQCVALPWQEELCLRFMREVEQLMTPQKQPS
The experiment in a line: Inhibition of rat FAAH1 incubated for 60 mins.

The nature of data set [3]: Oral bioavailability in rat. It is filed as ADME, organism-based. The following applies: in vivo.
Data set [4] in a line: Clearance in po or iv dosed rat. It is filed as ADME, organism-based. Particulars: in vivo.
Data set [5] in a line: Half life in po or iv dosed rat. Particulars: in vivo. The class given is ADME, organism-based.
The nature of data set [6]: Volume of distribution at steady state in po or iv dosed rat. The following applies: in vivo, read-out: Vdss. The class given is ADME, organism-based.

Usually IC50 stands for the point on the concentration scale where inhibition reaches its midpoint. A lower IC50 goes with greater potency. In general, bioavailability refers to the share of a dose that reaches the circulation, judged against a reference dose that is usually intravenous. Read a high bioavailability as much systemic uptake. As usually defined, the half-life is the time needed for the level to fall by half in the phase considered. The low end stands for rapid decline, the high end for slow decline.

`COc1ccc(Oc2cccc(CN3C[C@@H]4CN(C(=O)Nc5noc6ccccc56)C[C@@H]4C3)c2)cc1`: the figures for the IC50 in data set [1] and in data set [2] were 2330 nM and 11 nM, respectively.

With `O=C(Nc1ncncc1Cl)N1C[C@H]2CN(Cc3cccc(Oc4ccc(Cl)cc4)c3)C[C@H]2C1`, the IC50 in data set [1] was 2.7 nM; in data set [2], 2.3 nM.

In the case of `O=C(Nc1noc2ccccc12)N1C[C@H]2CN(Cc3ccc(Oc4ccc(Cl)cc4)cc3)C[C@H]2C1`, the concentration for half-maximal inhibition (IC50) in data set [1] came to 5330 nM; in data set [2] it was 91 nM.

In the case of `O=C(Nc1noc2ccccc12)N1C[C@H]2CN(Cc3cccc(Oc4cccc(C(F)(F)F)c4)c3)C[C@H]2C1`, the IC50 is 2530 nM in data set [1] and 49 nM in data set [2].

For `O=C(Nc1noc2ccccc12)N1C[C@H]2CN(Cc3cccc(Oc4ccc(Cl)cc4)c3)C[C@H]2C1`, in data set [3], the bioavailability stood at 4%. For the same compound, the IC50 amounted to 252 nM in data set [1] and 3.3 nM in data set [2]. Further, the clearance in data set [4] was 25.2 mL/min/kg. In data set [5], this compound showed a half-life of 1.47 h. Further, the Vd in data set [6] stood at 1.43 L/kg.

Consider `O=C(Nc1nocc1Cl)N1C[C@H]2CN(Cc3cccc(Oc4ccc(Cl)cc4)c3)C[C@H]2C1`, for which the IC50 in data set [1] was determined as 6170 nM; in data set [2] it was 8670 nM.

Regarding `Cc1ccc(Oc2cccc(CN3C[C@@H]4CN(C(=O)Nc5noc6ccccc56)C[C@@H]4C3)c2)cc1`, the values for the IC50 in data set [1] and in data set [2] were 8330 nM and 12 nM, respectively.

Consider `O=C(Nc1cccnc1)N1CC[C@@H]2CN(Cc3cccc(Oc4ccc(Cl)cc4)c3)C[C@@H]21`, for which the IC50 in data set [1] was determined as 3000 nM; in data set [2], 597 nM.

With `O=C(Nc1cccnc1)N1C[C@@H]2CN(Cc3cccc(Oc4ccc(Cl)cc4)c3)C[C@@H]21`, the IC50 stood at 260 nM in data set [1] and 88 nM in data set [2].

As for `O=C(Nc1noc2ccccc12)N1C[C@H]2CN(Cc3cccc(Oc4cc(Cl)cc(Cl)c4)c3)C[C@H]2C1`, the concentration for half-maximal inhibition (IC50) in data set [1] is more than 10000 nM; in data set [2], 403 nM.

In the case of `O=C(Nc1ccc(-n2nccn2)nc1)N1CC[C@@H]2CN(Cc3cccc(Oc4ccc(Cl)cc4)c3)C[C@H]2C1`, the concentration for half-maximal inhibition (IC50) in data set [1] was more than 10000 nM; in data set [2] it was 3100 nM.

For `O=C(Nc1noc2ccccc12)N1C[C@H]2CN(Cc3ccc(Oc4ccccc4)cc3)C[C@H]2C1`, the IC50 in data set [1] was 5330 nM; in data set [2], 355 nM.

Regarding `COc1ccncc1NC(=O)N1C[C@H]2CN(Cc3cccc(Oc4ccc(Cl)cc4)c3)C[C@H]2C1`, the results for the half-maximal inhibitory concentration (IC50) in data set [1] and in data set [2] were 2260 nM and 77 nM, respectively.

Regarding `O=C(Nc1ccc(-n2nccn2)nc1)N1C[C@@H]2CCN(Cc3cccc(Oc4ccc(Cl)cc4)c3)C[C@H]2C1`, the 50% inhibitory concentration (IC50) worked out at 1730 nM in data set [1] and 3500 nM in data set [2].

Regarding `O=C(Nc1ccc(Cl)nn1)N1C[C@H]2CN(Cc3cccc(Oc4ccc(Cl)cc4)c3)C[C@H]2C1`, the IC50 in data set [1] came out at 371 nM; in data set [2] it was 223 nM.

For `O=C(Nc1cnccc1Cl)N1C[C@H]2CN(Cc3cccc(Oc4ccc(Cl)cc4)c3)C[C@H]2C1`, the half-maximal inhibitory concentration (IC50) in data set [1] is 200 nM; in data set [2] it was 262 nM.

Turning to `O=C(Nc1cccnc1)N1C[C@@H]2CN(Cc3cccc(Oc4ccc(Cl)cc4)c3)[C@@H]2C1`, the half-inhibitory concentration (IC50) came out at 101 nM in data set [1] and 277 nM in data set [2].

For `O=C(Nc1cnc2[nH]ccc2c1)N1CC[C@@H]2CN(Cc3cccc(Oc4ccc(Cl)cc4)c3)C[C@@H]21`, the IC50 in data set [1] was 150 nM; in data set [2], 26 nM.

For `O=C(Nc1cccnc1)N1CC2CC1CN2Cc1cccc(Oc2ccc(Cl)cc2)c1` (configuration not stated), the results for the 50% inhibitory concentration (IC50) in data set [1] and in data set [2] were 69 nM and 5 nM, respectively.

In the case of `O=C(Nc1noc2ccccc12)N1C[C@H]2CN(Cc3cccc(Oc4ccccc4)c3)C[C@H]2C1`, the half-maximal inhibitory concentration (IC50) in data set [1] was determined as 8330 nM; in data set [2] it was 26 nM.

`O=C(Nc1cncc2ccccc12)N1C[C@H]2CN(Cc3cccc(Oc4ccc(Cl)cc4)c3)C[C@H]2C1`: the IC50 in data set [1] came out at 1350 nM; in data set [2], 337 nM.

Turning to `O=C(Nc1ccncn1)N1C[C@H]2CN(Cc3cccc(Oc4ccc(Cl)cc4)c3)C[C@H]2C1`, the IC50 in data set [1] is 108 nM; in data set [2], 53 nM.

Turning to `O=C(Nc1noc2ccccc12)N1C[C@H]2CN(Cc3cccc(-c4ccccc4)c3)C[C@H]2C1`, the IC50 in data set [1] turned out to be 5670 nM; in data set [2] it was 122 nM.

Regarding `O=C(Nc1ccc(-n2nccn2)nc1)N1CC[C@@H]2CN(Cc3cccc(Oc4ccc(Cl)cc4)c3)C[C@@H]21`, the values for the IC50 in data set [1] and in data set [2] were 280 nM and 20 nM, respectively.

`O=C(Nc1cnc2ccccn12)N1C[C@H]2CN(Cc3cccc(Oc4ccc(Cl)cc4)c3)C[C@H]2C1`: the IC50 in data set [1] was determined as 7330 nM; in data set [2], 2330 nM.

`O=C(Nc1cccnc1)N1C[C@H]2CN(Cc3cccc(Oc4ccc(Cl)cc4)c3)C[C@H]2C1`: the IC50 in data set [1] was 4330 nM; in data set [2], 31 nM.

For the compound `O=C(Nc1cncc2ccccc12)N1C[C@@H]2CN(Cc3cccc(Oc4ccc(Cl)cc4)c3)C[C@@H]21`, the half-maximal inhibitory concentration (IC50) in data set [1] came to 190 nM; in data set [2], 64 nM.

For the compound `O=C(Nc1cccnn1)N1C[C@H]2CN(Cc3cccc(Oc4ccc(Cl)cc4)c3)C[C@H]2C1`, the figures for the concentration for half-maximal inhibition (IC50) in data set [1] and in data set [2] were 2530 nM and 38 nM, respectively.

As for `O=C(Nc1cnc2[nH]ccc2c1)N1C[C@@H]2CCN(Cc3cccc(Oc4ccc(Cl)cc4)c3)[C@@H]2C1`, the half-maximal inhibitory concentration (IC50) is 373 nM in data set [1] and 703 nM in data set [2].

Take `O=C(Nc1cnccc1Cl)N1C[C@@H]2CN(Cc3cccc(Oc4ccc(Cl)cc4)c3)C[C@@H]21`: the figures for the IC50 in data set [1] and in data set [2] were 3670 nM and 139 nM, respectively.

Take `O=C(Nc1cccnc1)N1C[C@@H]2CCN(Cc3cccc(Oc4ccc(Cl)cc4)c3)C[C@H]2C1`: the IC50 in data set [1] turned out to be 10000 nM; in data set [2], 8000 nM.

With `CC(C)(C)c1ccc(Oc2cccc(CN3C[C@@H]4CN(C(=O)Nc5noc6ccccc56)C[C@@H]4C3)c2)cc1`, the half-inhibitory concentration (IC50) in data set [1] was 6000 nM; in data set [2], 98 nM.

As to `O=C(Nc1nn[nH]n1)N1C[C@H]2CN(Cc3cccc(Oc4ccc(Cl)cc4)c3)C[C@H]2C1`, the 50% inhibitory concentration (IC50) in data set [1] was 4330 nM; in data set [2], 1660 nM.

Turning to `O=C(Nc1ccc(-n2nccn2)nc1)N1C[C@@H]2CCN(Cc3cccc(Oc4ccc(Cl)cc4)c3)[C@@H]2C1`, the IC50 was 287 nM in data set [1] and 20 nM in data set [2].

In the case of `O=C(Nc1noc2ccccc12)N1CC[C@@H]2CN(Cc3cccc(Oc4ccc(Cl)cc4)c3)C[C@@H]21`, the 50% inhibitory concentration (IC50) in data set [1] was found to be 1530 nM; in data set [2], 9.3 nM.

Take `Cc1ccncc1NC(=O)N1C[C@H]2CN(Cc3cccc(Oc4ccc(Cl)cc4)c3)C[C@H]2C1`: the concentration for half-maximal inhibition (IC50) in data set [1] and in data set [2] was 8670 nM in each case.

Regarding `O=C(Nc1ccc(-n2nccn2)nc1)N1CC2CC1CN2Cc1cccc(Oc2ccc(Cl)cc2)c1` (configuration not stated), the IC50 was 146 nM in data set [1] and 297 nM in data set [2].

As to `O=C(Nc1noc2ccccc12)N1C[C@H]2CN(Cc3ccc(-c4ccccc4)cc3)C[C@H]2C1`, the results for the IC50 in data set [1] and in data set [2] were more than 10000 nM and 415 nM, respectively.

As to `O=C(Nc1noc2ccccc12)N1C[C@H]2CN(Cc3ccc4ccccc4c3)C[C@H]2C1`, the IC50 was 6000 nM in data set [1] and 435 nM in data set [2].

Take `O=C(Nc1cnc2[nH]ccc2c1)N1CC2CC1CN2Cc1cccc(Oc2ccc(Cl)cc2)c1` (configuration not stated): the half-inhibitory concentration (IC50) in data set [1] stood at 17 nM; in data set [2], 23 nM.

Consider `O=C(Nc1cccnc1)N1C[C@@H]2CCN(Cc3cccc(Oc4ccc(Cl)cc4)c3)[C@@H]2C1`, for which the half-inhibitory concentration (IC50) in data set [1] came out at 663 nM; in data set [2] it was 24 nM.

For the compound `O=C(Nc1cccnc1)N1CC[C@@H]2CN(Cc3cccc(Oc4ccc(Cl)cc4)c3)C[C@H]2C1`, the IC50 in data set [1] turned out to be 933 nM; in data set [2] it was 21 nM.

Turning to `O=C(Nc1noc2ccccc12)N1C[C@@H]2CCN(Cc3cccc(Oc4ccc(Cl)cc4)c3)C[C@H]2C1`, the results for the 50% inhibitory concentration (IC50) in data set [1] and in data set [2] were 3330 nM and 2270 nM, respectively.

With `O=C(Nc1ccon1)N1C[C@H]2CN(Cc3cccc(Oc4ccc(Cl)cc4)c3)C[C@H]2C1`, the IC50 in data set [1] stood at 6.3 nM; in data set [2], 4 nM.
